Experimental data as given in patent US10285967B2, “Monoacylglycerols for use in conjunction with a lipase inhibitor and/or diets low in fat and/or calories” (NESTEC S.A., priority 2013, dated 2019).

Assays:
[1] = lipid maldigestion or malabsorption rat model (XENICAL-induced), EPA level in red blood cell lipids; format: in vivo; conditions: FIG. 2; for level of EPA incorporated in red blood cells: rats, day 7, with XENICAL (ORLISTAT)
Experimental: The concept was tested in a lipid maldigestion or malabsorption rat model. The maldigestion or malabsorption condition was obtained using XENICAL® (ORLISTAT), a pancreatic and gastric lipases inhibitor (tetrahydrolipstatin; see FIG. 7). Rats were fed during 21 days with long-chain polyunsaturated fatty acid (LC-PUFA) supplements containing mainly eicosapentaenoic (EPA) acid. Fish oil was used as a source of triacylglycerols, and different EPA glycerides were evaluated. XENICAL® (ORLISTAT) was given at a level sufficient to decrease lipid absorption by 40%. A group receiving fish oil without XENICAL® (ORLISTAT) was used as a positive control. At different time intervals (D3, D7, D14 and D21), the fatty acid profiles of red blood cell and plasma lipids were determined. At the end of the experiment, the fatty acid profiles of different tissues were determined.
The main objective was to follow the level of EPA in red blood cell and plasma lipids. The main comparison evaluated was the difference in EPA level between the group receiving EPA-containing sn-1(3) MAG (FIG. 1) in combination with XENICAL® (ORLISTAT) and the […] (fish oil+XENICAL® (ORLISTAT)).
This comparison corroborates the validity of the model.

[2] = clinical study of EPA delivery under lipid maldigestion induced by XENICAL (ORLISTAT); format: in vivo, human
Experimental: This clinical study compared the efficacy of sn-1(3) MAG and fish oil (TAG) in delivering EPA in humans under lipid maldigestion conditions induced by XENICAL® (ORLISTAT). The comparison was tested in volunteers having a BMI of 37-40 kg/m2 and treated with XENICAL® (ORLISTAT) to induce lipid maldigestion or not treated with XENICAL® (ORLISTAT). The primary objective was to assess accretion of EPA in erythrocytes over 21 days when consumed as fish oil (TAG) or sn-1(3) MAG. The secondary objectives were to assess accretion of EPA in plasma over 21 days and also to assess the pharmacokinetics of EPA after an acute dose either in the form of sn-1(3) MAG or TAG (AUC in chylomicrons over 10 hours postprandial).

Question: With CCCCCCCCCCC[C@@H](C[C@@H]1OC(=O)[C@H]1CCCCCC)OC(=O)[C@H](CC(C)C)NC=O [XENICAL® (ORLISTAT), tetrahydrolipstatin, reference compound] as the compound, how does the “EPA incorporation in red blood cells” value ([1]; rats fed fish oil with XENICAL (ORLISTAT) vs fish oil without, day 7) read?
Answer: decreases EPA incorporation in red blood cells

Question: Which “carrier for EPA compared with fish oil (TAG)” value ([2]; obese subjects treated with XENICAL (ORLISTAT)) does the source give for CC/C=C\C/C=C\C/C=C\C/C=C\C/C=C\CCCC(=O)OCC(O)CO (stereo not drawn) [sn-1(3) MAG, sn-1(3)-monoeicosapentaenoylglycerol] here?
Answer: better carrier for EPA than fish oil

Question: What about the “chronic effect: accretion of EPA in erythrocytes after 21 days” value ([2]; obese volunteers, with XENICAL (ORLISTAT), compared with fish oil + XENICAL, p=0.0001, FIG. 5) of the same compound?
Answer: statistically significant

Question: And the “chronic effect: accretion of EPA in plasma after 21 days” value ([2]; obese volunteers, with XENICAL (ORLISTAT), relative to fish oil + XENICAL, p=0.0003, FIG. 6)?
Answer: statistically significant

Question: And the “level of EPA incorporated in red blood cells” value ([1]; compared with fish oil + XENICAL group, all P values lower than 0.05)?
Answer: statistically higher

Question: And the “level of EPA incorporated in red blood cells” value ([1]; compared with fish oil group without XENICAL)?
Answer: even higher than the fish oil group
